Counter-ions that a name gives are not always drawn.
Legend:
Type in all cases: biochemical
[1] = molecular target: T1, recombinant human VAP-1 (Homo sapiens, UniProt Q16853); test: Activity on recombinant human VAP-1, Amplex Red HRP-coupled hydrogen peroxide assay, benzylamine substrate; conditions: recombinant human VAP-1, benzylamine substrate, 30 min preincubation at 37° C.; read-out: Inhibitory Activity (IC50, nM) human VAP-1
T1 construct: purchased R&D systems
T1 sequence (Q16853 1-763): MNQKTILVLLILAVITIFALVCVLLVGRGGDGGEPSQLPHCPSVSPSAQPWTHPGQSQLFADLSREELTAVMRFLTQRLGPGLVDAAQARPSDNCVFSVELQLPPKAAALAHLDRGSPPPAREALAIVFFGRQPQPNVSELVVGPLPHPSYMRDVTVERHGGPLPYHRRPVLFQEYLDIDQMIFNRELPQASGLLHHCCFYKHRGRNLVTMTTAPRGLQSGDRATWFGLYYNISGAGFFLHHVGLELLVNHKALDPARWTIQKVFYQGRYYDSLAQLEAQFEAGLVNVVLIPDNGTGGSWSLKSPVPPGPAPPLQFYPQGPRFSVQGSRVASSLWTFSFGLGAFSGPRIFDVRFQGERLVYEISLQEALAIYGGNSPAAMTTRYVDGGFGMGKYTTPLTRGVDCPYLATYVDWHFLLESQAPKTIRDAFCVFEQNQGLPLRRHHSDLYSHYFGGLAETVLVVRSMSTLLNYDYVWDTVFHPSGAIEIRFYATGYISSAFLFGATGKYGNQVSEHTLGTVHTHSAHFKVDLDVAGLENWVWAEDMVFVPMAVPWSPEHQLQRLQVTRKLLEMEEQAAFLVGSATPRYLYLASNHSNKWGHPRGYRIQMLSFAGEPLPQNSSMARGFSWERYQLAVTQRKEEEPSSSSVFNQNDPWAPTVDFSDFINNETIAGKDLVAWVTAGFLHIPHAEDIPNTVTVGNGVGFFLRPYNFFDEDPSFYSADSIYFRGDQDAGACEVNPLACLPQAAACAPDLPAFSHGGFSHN
How it was run: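 8-point 1:3 dilutions, final DMSO <1%; 30 min enzyme preincubation, 37 °C, pH 7.4 phosphate. Start: 1 mM benzylamine + 200 uM Amplex Red + 1 U/mL HRP. Read ex544/em590 over 1-2 h; % rate decrease vs DMSO control, 4-parameter logistic IC50.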

[2] = molecular target: T2, recombinant human MAO-A (monoamine oxidase-A) (Homo sapiens, UniProt P21397); test: Activity on recombinant human MAO-A, Amplex Red method, 0.5 mM tyramine substrate; conditions: 0.5 mM tyramine, read-out: Inhibitory Activity (IC50, nM) MAO-A
T2 construct: purchased Sigma-Aldrich
T2 sequence (P21397 1-527): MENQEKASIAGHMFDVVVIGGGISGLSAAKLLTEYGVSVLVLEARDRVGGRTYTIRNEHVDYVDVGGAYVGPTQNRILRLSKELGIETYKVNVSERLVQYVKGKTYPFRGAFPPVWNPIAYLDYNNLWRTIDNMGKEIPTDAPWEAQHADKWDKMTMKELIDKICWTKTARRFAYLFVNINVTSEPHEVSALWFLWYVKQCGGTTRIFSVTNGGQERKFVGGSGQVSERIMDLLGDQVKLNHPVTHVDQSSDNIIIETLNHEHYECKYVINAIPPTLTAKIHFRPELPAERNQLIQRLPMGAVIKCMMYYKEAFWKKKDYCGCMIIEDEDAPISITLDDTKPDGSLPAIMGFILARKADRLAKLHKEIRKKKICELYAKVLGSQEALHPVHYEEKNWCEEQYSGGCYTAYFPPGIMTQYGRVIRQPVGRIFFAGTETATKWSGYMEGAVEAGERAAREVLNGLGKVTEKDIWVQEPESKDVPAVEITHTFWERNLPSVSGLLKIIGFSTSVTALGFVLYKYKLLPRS
How it was run: (§1)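 HRP-coupled Amplex Red H2O2 assay, 50 mM sodium phosphate pH 7.4; compounds (8-point 1:3 series, final DMSO <1%) preincubated with enzyme 30 min at 37° C, then 200 uM Amplex Red, 1 U/mL HRP and substrate (MAO-A 0.5 mM tyramine; MAO-B 1 mM benzylamine) added. Resorufin fluorescence (ex 544/em 590 nm) read over 1-2 h; IC50 from four-parameter logistic fit.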

[3] = molecular target: T3, recombinant human MAO-B (monoamine oxidase-B) (Homo sapiens, UniProt P27338); test: Activity on recombinant human MAO-B, Amplex Red method, 1 mM benzylamine substrate; conditions: 1 mM benzylamine, read-out: Inhibitory Activity (IC50, nM) MAO-B
T3 construct: purchased Sigma-Aldrich
T3 sequence (P27338 1-520): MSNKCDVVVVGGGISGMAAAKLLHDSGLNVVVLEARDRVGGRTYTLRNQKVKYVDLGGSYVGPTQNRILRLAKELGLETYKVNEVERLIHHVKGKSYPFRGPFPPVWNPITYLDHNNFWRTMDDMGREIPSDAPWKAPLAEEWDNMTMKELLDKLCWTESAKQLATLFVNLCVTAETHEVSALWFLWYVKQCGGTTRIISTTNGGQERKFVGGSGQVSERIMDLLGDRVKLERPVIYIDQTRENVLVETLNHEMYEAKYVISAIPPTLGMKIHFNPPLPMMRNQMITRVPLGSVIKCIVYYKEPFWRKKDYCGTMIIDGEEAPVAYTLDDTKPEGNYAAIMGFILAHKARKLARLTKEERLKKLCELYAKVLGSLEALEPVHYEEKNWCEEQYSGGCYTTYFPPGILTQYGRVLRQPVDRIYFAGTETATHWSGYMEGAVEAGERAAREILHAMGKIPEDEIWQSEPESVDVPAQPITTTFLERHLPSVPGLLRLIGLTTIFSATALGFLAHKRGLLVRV
How it was run: as §1

[4] = molecular target: T4, recombinant human DAO (diamine oxidase) (Homo sapiens, UniProt P19801); test: Activity on recombinant human DAO, Amplex Red method, 1 mM putrescine substrate; conditions: recombinant human DAO, 1 mM putrescine, * = between 10 and 100 nM, ** = between 300 and 1000 nM; for IC50: read-out: Inhibitory Activity (IC50, nM) DAO
T4 construct: purchased R&D systems
T4 sequence (P19801 20-751): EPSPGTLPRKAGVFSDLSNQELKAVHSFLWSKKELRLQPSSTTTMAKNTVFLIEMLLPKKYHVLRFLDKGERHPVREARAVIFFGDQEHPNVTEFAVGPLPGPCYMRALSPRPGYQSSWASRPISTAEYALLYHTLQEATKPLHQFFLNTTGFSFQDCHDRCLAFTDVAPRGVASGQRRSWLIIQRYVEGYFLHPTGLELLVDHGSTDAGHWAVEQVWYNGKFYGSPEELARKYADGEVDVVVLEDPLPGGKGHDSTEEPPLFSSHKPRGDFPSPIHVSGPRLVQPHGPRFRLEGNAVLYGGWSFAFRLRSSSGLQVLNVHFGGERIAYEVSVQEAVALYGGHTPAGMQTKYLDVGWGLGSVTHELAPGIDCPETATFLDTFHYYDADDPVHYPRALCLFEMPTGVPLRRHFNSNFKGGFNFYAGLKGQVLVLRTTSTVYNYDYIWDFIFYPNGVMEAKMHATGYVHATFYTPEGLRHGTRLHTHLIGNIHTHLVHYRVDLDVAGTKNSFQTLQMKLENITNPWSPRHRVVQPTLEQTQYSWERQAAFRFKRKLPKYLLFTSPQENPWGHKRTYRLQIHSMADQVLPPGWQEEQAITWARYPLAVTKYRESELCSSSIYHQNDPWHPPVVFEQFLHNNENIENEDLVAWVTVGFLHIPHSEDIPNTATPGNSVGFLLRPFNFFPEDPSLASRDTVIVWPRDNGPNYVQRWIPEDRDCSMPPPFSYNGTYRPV
How it was run: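 Inhibition of recombinant human DAO (diamine oxidase, R&D systems) was assessed with the Amplex Red Hydrogen Peroxide Assay Kit. Hydrogen peroxide produced from 1 mM putrescine was detected through an HRP-coupled reaction that converts Amplex Red into fluorescent resorufin, read at 544 nm excitation and 590 nm emission. IC50 values came from four-parameter logistic fits in GraphPad Prism.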

IC50 [1] | IC50 [2] | IC50 [3] | IC50 [4] | Inhibitory Activity (IC50, nM) DAO [4] | Compound
0.2 nM | > 100000 nM | > 10000 nM | 28 nM | – | Cc1cc(-c2cccc(-n3cnn(C/C(=C/F)CN)c3=O)c2)cc2c1NC(=O)CC2 [Example 102, 6-(3-{1-[(2E)-2-(aminomethyl)-3-fluoroprop-2-en-1-yl]-5-oxo-1,5-dihydro-4H-1,2,4-triazol-4-yl}phenyl)-8-methyl-3,4-dihydroquinolin-2(1H)-one hydrochloride]
0.6 nM | 26500 nM | 1200 nM | 2.5 nM | – | NC/C(=C\F)Cn1ncn(-c2cccc(-c3ccc4c(c3)NC(=O)CO4)c2)c1=O [Example 103, 6-(3-{1-[(2E)-2-(aminomethyl)-3-fluoroprop-2-en-1-yl]-5-oxo-1,5-dihydro-4H-1,2,4-triazol-4-yl}phenyl)-2H-1,4-benzoxazin-3(4H)-one hydrochloride]
0.83 nM | 65200 nM | 9640 nM | 180 nM | – | Cc1ccc(-c2cccc(-n3cnn(C/C(=C/F)CN)c3=O)c2)c2cccnc12 [Example 105, 2-[(2E)-2-(aminomethyl)-3-fluoroprop-2-en-1-yl]-4-[3-(8-methylquinolin-5-yl)phenyl]-2,4-dihydro-3H-1,2,4-triazol-3-one hydrochloride]
4.7 nM | > 100000 nM | > 10000 nM | 310 nM | – | Cc1c(-c2ccc(S(C)(=O)=O)cc2)cccc1-n1cnn(C/C(=C/F)CN)c1=O [Example 106, 2-[(2E)-2-(aminomethyl)-3-fluoroprop-2-en-1-yl]-4-[2-methyl-4′-(methylsulfonyl)biphenyl-3-yl]-2,4-dihydro-3H-1,2,4-triazol-3-one]
2.8 nM | > 100000 nM | > 10000 nM | – | no inhibitory | CC(=O)Nc1ccc(-c2cccc(-n3cnn(C/C(=C/F)CN)c3=O)c2C)cc1 [Example 107, N-(3′-{1-[(2E)-2-(aminomethyl)-3-fluoroprop-2-en-1-yl]-5-oxo-1,5-dihydro-4H-1,2,4-triazol-4-yl}-2′-methylbiphenyl-4-yl)acetamide]
2.2 nM | > 100000 nM | > 10000 nM | 3500 nM | – | Cc1c(-c2ccc(-c3ccon3)cc2)cccc1-n1cnn(C/C(=C/F)CN)c1=O [Example 108, 2-[(2E)-2-(aminomethyl)-3-fluoroprop-2-en-1-yl]-4-[2-methyl-4′-(1,2-oxazol-3-yl)biphenyl-3-yl]-2,4-dihydro-3H-1,2,4-triazol-3-one]
3.1 nM | > 100000 nM | > 10000 nM | – | no inhibitory | Cc1c(-c2ccc3sc(N)nc3c2)cccc1-n1cnn(C/C(=C/F)CN)c1=O [Example 114, 4-[3-(2-amino-1,3-benzothiazol-5-yl)-2-methylphenyl]-2-[(2E)-2-(aminomethyl)-3-fluoroprop-2-en-1-yl]-2,4-dihydro-3H-1,2,4-triazol-3-one]
1.5 nM | > 100000 nM | 980 nM | < 100 nM | – | Cc1cc(-n2cnn(C/C(=C/F)CN)c2=O)cnc1-c1ccc(-c2nc[nH]n2)cc1 [Example 115, 2-[(2E)-2-(aminomethyl)-3-fluoroprop-2-en-1-yl]-4-{5-methyl-6-[4-(1H-1,2,4-triazol-3-yl)phenyl]pyridin-3-yl}-2,4-dihydro-3H-1,2,4-triazol-3-one]
0.72 nM | > 100000 nM | 6020 nM | < 100 nM | – | Cc1cc(-n2cnn(C/C(=C/F)CN)c2=O)cnc1-c1cccc(-c2nc[nH]n2)c1 [Example 116, 2-[(2E)-2-(aminomethyl)-3-fluoroprop-2-en-1-yl]-4-{5-methyl-6-[3-(1H-1,2,4-triazol-3-yl)phenyl]pyridin-3-yl}-2,4-dihydro-3H-1,2,4-triazol-3-one]
0.21 nM | > 100000 nM | 32 nM | 2.5 nM | – | Cc1cc(-n2cnn(C/C(=C/F)CN)c2=O)cnc1-c1ccc2c(c1)OCO2 [Example 117, 2-[(2E)-2-(aminomethyl)-3-fluoroprop-2-en-1-yl]-4-[6-(1,3-benzodioxol-5-yl)-5-methylpyridin-3-yl]-2,4-dihydro-3H-1,2,4-triazol-3-one]
0.34 nM | > 100000 nM | 3040 nM | 1.7 nM | – | Cc1cc(-n2cnn(C/C(=C/F)CN)c2=O)cnc1-c1ccc2sc(N)nc2c1 [Example 118, 4-[6-(2-amino-1,3-benzothiazol-5-yl)-5-methylpyridin-3-yl]-2-[(2E)-2-(aminomethyl)-3-fluoroprop-2-en-1-yl]-2,4-dihydro-3H-1,2,4-triazol-3-one hydrochloride]
1.4 nM | > 100000 nM | > 10000 nM | 110 nM | – | CC(=O)Nc1ccc(-c2cc(C)c(-n3cnn(C/C(=C/F)CN)c3=O)cn2)cc1 [Example 120, N-[4-(5-{1-[(2E)-2-(aminomethyl)-3-fluoroprop-2-en-1-yl]-5-oxo-1,5-dihydro-4H-1,2,4-triazol-4-yl}-4-methylpyridin-2-yl)phenyl]acetamide]

Reference: patent US11492335B2, “Aryl or heteroaryl triazolone derivatives or salts thereof, or pharmaceutical compositions comprising the same” (YUHAN CORPORATION, priority 2018, dated 2022)
